Measurements reported in patent US20090286808A1, “Opsin Stabilizing Compounds and Methods of Use” (University of Florida Research Foundation, Inc., priority 2006, published 2009).
Entries after “also recorded” stand apart in the source; their conditions may differ. Where two headings read alike, the source gives them in different places.

Columns and labels:
P23H opsin [1] = molecular target: T1, P23H opsin (Bos taurus, UniProt P02699, P23H); type: cell-based, bovine
T1 construct: expressed in transfected cells
Procedure: (§1) The P23H opsin producing cells were grown in 6-well plates and induced to produce P23H opsin. The DMSO solutions of the NCI compounds were individually added to separate wells at a final concentration of 100 μM. After incubation for 48 h cells were collected and washed with PBS. The cells were then lysed in PBSD by constantly rotating for 1 h at 4° C. The tubes were spun at 36000 rpm for […] and supernatant collected in fresh tubes. Total protein was quantified using a commercially available assay system, the DC protein assay (Biorad). Equal amounts of protein (10 μg) from different samples was loaded on 4-20% SDS polyacrylamide gels and total opsin quantified by western blotting.
as §1, with “the test” for “the NCI”, “1 hour” for “1 h”, “at 36,000” for “at 36000”, “using” for “using a commercially available assay system, the”, “blotting. Proteins were separated on SDS-PAGE gels and western blotted as described in Noorwez et at (2004).” for “blotting.”
Thus, a higher fraction of P23H molecules attain a stable conformation. […] This might also explain the difference in the degree of rescue obtained with these two pharmacological chaperones.

P23H opsin [2] = molecular target: T1, P23H opsin; test: Yield of folded P23H rhodopsin purified from P23H opsin expressing HEK293 cells, by spectrophotometry; type: cell-based, bovine; conditions: for increase in P23H pigment over control: compound present during P23H opsin expression, 48 hours, β-ionone 10 μM; for increase in the yield of folded P23H rhodopsin: P23H opsin expressing cells treated with compound, versus no compound; for % Increase in P23H Yield (Table 1): compound concentration 100 μM, compared to control; for yield of folded P23H rhodopsin, in words: versus absence of the compound
Procedure: Wild-type (WT) and P23H expressing stable cell lines were generated in a commercially available cloning system, the Flp-In T-Rex System™ (Invitrogen). The stable cells were grown in DMEM high glucose media supplemented with 10% (vlv) fetal bovine serum, antibiotic antimycotic solution, […] blasticidin and hygromycin at 37° C. in presence of 5% CO2. For all the experiments the cells were allowed to reach confluence and were induced with 1 μg/ml tetracycline after change of media and then compounds were added. The plates were incubated for 48 h after which the cells were harvested.
For purification of rhodopsin 100 μM […] was added to a confluent plate of P23H cells after induction. […] Rhodopsin purification was essentially as described below for opsin purification with minor modifications. Briefly, the cells were harvested and washed with PBS followed by incubation with 50 μM 11-cis-retinal for 1.5 h at 4° C. The cells were then washed three times with PBS to remove excess retinal. Lysis, column binding and elution from the column were same as in case of opsin purification.
Stable cell lines expressing the P23H opsin were generated using Flp-In T-Rex system (Invitrogen) in HEK293 cell line. To create plasmids for constructing stable cell lines, an EcoRI-NotI fragment from the wild-type or P23H mutant synthetoc bovine opsin gene in pMT4 (see Kaushal et al., Biochemistry, Vol. 33, pp. 6121-6128 (1994) was combined with the large EcoRI-NotI fragment of pcDNA5/FRT/TO (Invitrogen). The resulting plasmids contain opsin under the control of a tetracycline-inducible human cytomegalovirus promoter and a flippase recognition sequence (FRT) for site sepecific recombination at the unique chromosomal FRT site of HEK293 Flp-In T-Rex. The opsin sequence in these plasmids was verified by PCR cycle sequencing. To construct stable cell lines, HEK293 Flp-In T-Rex cells were co-transfected with the flippase vector pOG44 (from Invitrogen) and the pcDNA5/FRT/TO vector or its derivatives containing the opsin gene. Stable recombinants were obtained by selecting for cells expressing resistance to hygromycin due to plasmid recombination at the FRT site. After the initial selection, the stable cell lines were routinely grown in the same media as HEK293 Flp-In T-rex, except that […].
The stable cells were grown in DMEM high glucose media supplemented with 10% (v/v) fetal bovine serum, antibiotic/antimycotic solution, 5 μg/ml blasticidin and hygromycin at 37° C. in presence of 5% CO2. For all the experiments the cells were allowed to reach confluence and were induced with 1 μg/mi tetracycline after change of media and then compounds were added. The plates were incubated for 48 h after which the cells were harvested.
The effect of the compounds on P23H rhodopsin yield was assessed by purifying and spectrophotormetrically determining the yield. After 48 hours of induction and treatment with compounds the cells were harvested and rhodopsin purified essentially as described in Noorwez et al. (2004). For purification of rhodopsin 100 μM NCI-45012 was added to a confluent plate of P23H cells after induction. […] Rhodopsin purification was essentially as described earlier for opsin purification with minor modifications. Briefly, the cells were harvested and washed with PBS followed by incubation with 50 μM 11-cis-retinal for 1.5 hours at 4° C., The cells were then washed three times with PBS to remove excess retinal. Lysis, column binding and elution from the column were the same as for opsin purification.
Compounds identified by computational modeling (see Example 1) were screened as described above. The effect of compounds on the yield of mutant rhodopsin was determined by spectrophotometry. […]

WT opsin [3] = molecular target: T2, WT opsin (Bos taurus, UniProt P02699); type: biochemical, bovine; conditions: compound without 11-cis-retinal chromophore, in vitro
Procedure: The cells were washed after 48 h and rhodopsin purified without treating the cells with 11-cis-retinal under conditions that yield only folded rhodopsin (Noorwez et al. (2004)).

WT opsin [4] = molecular target: T2, WT opsin; test: Opsin regeneration and retinal competition: rate of 500 nm pigment formation of purified WT opsin with 11-cis-retinal; type: biochemical, bovine
Procedure: WT opsin producing cells were grown in 10 cm culture plates and induced for opsin production. After 48 hour of induction the cells were harvested and washed with PBS (10 mM sodium phosphate, 130 mM NaCl, pH 7.2). The cells were lysed in PBSD (PBS containing 1.0% DM and 1× protease inhibitor cocktail) for 1 hour and the lysate was added to 1D4 coupled sepharose beads and incubated for 1 hour at 4° C. The beads were washed 5 times in PBSD and twice with 10 mM sodium phosphate buffer containing 0.5% DM, pH 6.0. The bound WT opsin was eluted with a competing peptide representing the last 18 amino acids of rhodopsin in the latter buffer for 1 hour.
All the opsin regeneration and competition assays were performed under dim red light in a Cary 50 spectrophotometer (Varian) equipped with temperature control. 25 μM purified WT opsin was mixed with 50 μM 11-cis retinal and scanned every two minutes in the range of 250-650 nm until no more rhodopsin was regenerated. Similarly opsin was mixed with compound SN10011 (2 or 5 mM) and allowed to sit for 10 minutes on ice. […] The reactions were conducted in 100 μl total volume where the compounds were provided in 2 μl solution to 98 μl opsin solution. The temperature was maintained at 20° C.

P347S (Class I) mice = conditions: cited from earlier work
T17M (Class II) mice = conditions: cited from earlier work
P23H opsin [5] = molecular target: T1, P23H opsin; test: Yield of folded P23H rhodopsin purified from P23H opsin expressing HEK293 cells, by spectrophotometry; type: cell-based, bovine; conditions: 48 h, no 11-cis-retinal
[6] = in the presence of 11-cis-retinal

SMILES: CC1=C(/C=C/C(C)=C/C=C/C(C)=C/C=O)C(C)(C)CCC1 [11-cis-retinal, reference compound]
- increase in yield of total opsin (P23H opsin [1]; [6]): 2.4 fold
- yield of folded rhodopsin (P23H opsin [1]; [6]): 2.6 fold
- effectiveness of 11-cis-retinal relative to β-ionone in increasing cellular yields of P23H rhodopsin (P23H opsin [2]): about 2 fold
- increase in P23H pigment over control (P23H opsin [2]): 5 fold

SMILES: CC(=O)c1c(C)n[nH]c1C [Compound 1, 1-(3,5-dimethyl-1H-pyrazol-4-yl)ethanone]
- formation of a 500 nm absorbing pigment with purified WT opsin (WT opsin [3]; listed as SN10011): No pigment was formed; also recorded: No 500 nm absorbing pigment was generated
- inhibition of opsin regeneration (pigment formation with 11-cis-retinal), in words (WT opsin [4]; listed as SN10011): significant effect on inhibition of pigment formation; also recorded: inhibited
- % Increase in P23H Yield (Table 2) (P23H opsin [2]): 30 ± 5%
- increase in the yield of folded P23H rhodopsin (P23H opsin [2]): 30%
- % Increase in P23H Yield (Table 1) (P23H opsin [2]): 31%
- yield of folded P23H rhodopsin, in words (P23H opsin [2]): increased yield of folded rhodopsin

SMILES: N#Cc1cn(Cc2ccco2)c(=O)[nH]c1=O [Compound 2, 1-furan-2-ylmethyl-2,4-dioxo-1,2,3,4-tetrahydro-pyrimidine-5-carbonitrile]
- % Increase in P23H Yield (Table 2) (P23H opsin [2]): 40 ± 7%
- % Increase in P23H Yield (Table 1) (P23H opsin [2]): 43%

SMILES: O=[PH](O)c1ccccc1 [Compound 3, phenyl-phosphinic acid]
- % Increase in P23H Yield (Table 2) (P23H opsin [2]): 40 ± 3%
- % Increase in P23H Yield (Table 1) (P23H opsin [2]): 32%

SMILES: Cc1cc([N+](=O)[O-])ccn1 [Compound 4, 2-methyl-4-nitro-pyridine]
- % Increase in P23H Yield (Table 2) (P23H opsin [2]): 25 ± 8%
- % Increase in P23H Yield (Table 1) (P23H opsin [2]): 24%

SMILES: O=C1NC(CCO)C(=O)NC1CCO (centres unmarked) [Compound 5, 3,6-bis-(2-hydroxyethy)-piperazine-2,5-dione]
- % Increase in P23H Yield (Table 2) (P23H opsin [2]): 30 ± 10%
- % Increase in P23H Yield (Table 1) (P23H opsin [2]): 15%

SMILES: CC(C)N(CC#N)C(C)C [Compound 6, diisopropylaminoacetonitrile]
- % Increase in P23H Yield (Table 2) (P23H opsin [2]): 25 ± 3%
- % Increase in P23H Yield (Table 1) (P23H opsin [2]): 28%

SMILES: N#Cc1ccc2c(c1)OCO2 [NSC 27009, 3,4-Methylenedioxybenzonitrile]
- % Increase in P23H Yield (Table 2) (P23H opsin [2]): 20 ± 5%

SMILES: Cn1cc(C(N)=O)ccc1=N [NSC 66688, 6-imino-1-methyl-1,6-dihydro-3-pyridinecarboxamine]
- % Increase in P23H Yield (Table 2) (P23H opsin [2]): 40 ± 9%

SMILES: Nn1nnc2ccccc21 [NSC 114498, 1H-1,2,3-benzotriazol-1-amine]
- % Increase in P23H Yield (Table 2) (P23H opsin [2]): 30 ± 6%

SMILES: Oc1ccccc1C=Nn1cnnc1 [NSC 121968, 4-Salicylideneamino-1,2,4-triazol]
- % Increase in P23H Yield (Table 2) (P23H opsin [2]): 29 ± 5%

SMILES: C[C@@H]1CCC[C@H](C)C1 [cis-1,3-dimethylcyclohexane]
- inhibition of opsin regeneration (pigment formation with 11-cis-retinal), in words (WT opsin [4]): much weaker inhibitor of opsin regeneration
- increase in the yield of folded P23H rhodopsin (P23H opsin [2]): 15%
- yield of folded P23H rhodopsin, in words (P23H opsin [2]): increased yield of folded P23H rhodopsin

SMILES: CCCCCCCCCCCCCCCC(=O)OC/C=C(C)/C=C/C=C(C)/C=C/C1=C(C)CCCC1(C)C [vitamin A palmitate]
- changes in retinal degeneration on treatment (P347S (Class I) mice): no significant changes
- decrease in outer nuclear layer (ONL) thickness in treated animals (T17M (Class II) mice): 24%
- decrease in the rate of decline in electroretinogram (ERG) a- and b-wave amplitudes (T17M (Class II) mice): 40-45%

SMILES: CC(=O)/C=C/C1=C(C)CCCC1(C)C [β-ionone]
- increase in yield of total opsin relative to no compound (P23H opsin [1]; P23H cells, β-ionone): 30%
- formation of a 500 nm absorbing pigment with purified WT opsin (WT opsin [3]): does not form a light absorbing pigment; also recorded: did not form a 500 nm absorbing pigment; also recorded: no 500 nm absorbing pigment was formed
- inhibition of opsin regeneration (pigment formation with 11-cis-retinal), in words (WT opsin [4]): inhibited opsin regeneration in a dose dependent manner
- pigment from P23H HEK cells treated with compound, purified without 11-cis-retinal treatment (P23H opsin [5]): No pigment was detected; also recorded: No pigment was observed; also recorded: No pigment was generated
- increase in P23H pigment over control (P23H opsin [2]): 2.5 fold
